# Target: T1, POLγA:R309C (Homo sapiens, UniProt P54098, R309C)
# T1 sequence (P54098 1-1239 R309C): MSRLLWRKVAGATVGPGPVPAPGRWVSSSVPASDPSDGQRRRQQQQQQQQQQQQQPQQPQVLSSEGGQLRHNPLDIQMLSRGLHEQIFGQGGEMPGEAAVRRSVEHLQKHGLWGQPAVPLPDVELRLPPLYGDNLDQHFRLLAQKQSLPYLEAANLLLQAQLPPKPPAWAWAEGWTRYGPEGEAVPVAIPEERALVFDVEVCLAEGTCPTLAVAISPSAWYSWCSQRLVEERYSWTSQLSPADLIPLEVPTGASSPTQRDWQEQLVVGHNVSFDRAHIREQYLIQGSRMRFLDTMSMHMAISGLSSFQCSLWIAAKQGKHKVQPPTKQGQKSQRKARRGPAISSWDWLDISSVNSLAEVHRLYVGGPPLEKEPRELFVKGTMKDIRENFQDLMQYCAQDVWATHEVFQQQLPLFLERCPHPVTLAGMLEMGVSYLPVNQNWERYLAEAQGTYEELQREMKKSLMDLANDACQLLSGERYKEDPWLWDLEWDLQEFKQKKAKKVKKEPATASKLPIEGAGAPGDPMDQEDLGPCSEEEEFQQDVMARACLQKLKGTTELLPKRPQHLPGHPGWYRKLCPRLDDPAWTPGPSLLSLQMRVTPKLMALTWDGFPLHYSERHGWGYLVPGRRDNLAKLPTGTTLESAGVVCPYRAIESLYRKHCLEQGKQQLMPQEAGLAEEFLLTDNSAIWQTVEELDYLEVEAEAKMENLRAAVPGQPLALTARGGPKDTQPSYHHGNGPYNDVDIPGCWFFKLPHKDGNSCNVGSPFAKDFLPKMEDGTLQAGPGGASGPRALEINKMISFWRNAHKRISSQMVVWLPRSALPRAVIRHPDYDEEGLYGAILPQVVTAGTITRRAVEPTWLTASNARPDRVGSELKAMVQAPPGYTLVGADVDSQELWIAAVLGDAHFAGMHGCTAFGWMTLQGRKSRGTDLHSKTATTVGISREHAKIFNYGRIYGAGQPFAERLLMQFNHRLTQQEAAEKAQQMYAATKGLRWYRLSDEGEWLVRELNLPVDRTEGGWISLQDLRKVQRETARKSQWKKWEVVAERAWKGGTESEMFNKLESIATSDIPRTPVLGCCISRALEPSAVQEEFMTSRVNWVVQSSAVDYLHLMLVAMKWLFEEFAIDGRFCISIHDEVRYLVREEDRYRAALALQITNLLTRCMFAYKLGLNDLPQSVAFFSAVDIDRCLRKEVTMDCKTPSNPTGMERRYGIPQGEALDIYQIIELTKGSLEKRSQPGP
# T1 sequence (Q9UHN1 1-485 partner): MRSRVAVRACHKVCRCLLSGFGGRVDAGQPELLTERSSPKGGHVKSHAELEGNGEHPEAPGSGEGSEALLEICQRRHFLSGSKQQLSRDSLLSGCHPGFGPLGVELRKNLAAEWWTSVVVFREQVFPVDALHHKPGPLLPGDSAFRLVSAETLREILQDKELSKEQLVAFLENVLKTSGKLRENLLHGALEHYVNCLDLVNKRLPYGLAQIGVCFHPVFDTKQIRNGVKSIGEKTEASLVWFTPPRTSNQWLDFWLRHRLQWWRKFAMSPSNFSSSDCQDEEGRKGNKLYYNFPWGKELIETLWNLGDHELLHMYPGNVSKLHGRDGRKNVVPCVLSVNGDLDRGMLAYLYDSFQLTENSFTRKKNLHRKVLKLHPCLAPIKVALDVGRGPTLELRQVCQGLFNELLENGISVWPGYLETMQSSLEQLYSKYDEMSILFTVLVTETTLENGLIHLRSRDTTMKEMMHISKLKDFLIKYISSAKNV
# Test: DNA polymerization assay, POLγA:R309C mutant
# Format: biochemical
# Conditions: stimulation of polymerase activity, primed M13mp18 ssDNA, 37° C. 2 hours
# Experimental: DNA Polymerization Assay to Monitor Effects on Human Wildtype POLγ and Four Disease-Causing Mutant Variants of Human POLγ.
# The ability of small molecules to stimulate the polymerase activity of POLγ was analyzed in a quantitative fluorescence SYBR Green I assay with fluorescence intensity (FI) readout.
# In the presence of dNTPs, wild type human POLγ and mutant derivatives thereof were incubated with single-stranded, circular M13mp18 ssDNA hybridized to a short DNA oligonucleotide that functions as a primer for initiation of DNA synthesis. POLγ and mutant derivatives thereof will extend the primer and use the M13mp18 molecule as a template to synthesize long stretches of double-stranded DNA. SYBR Green I, which is a double-stranded DNA-binding dye, was used to quantify formation of double-stranded DNA in the reaction. When bound to double-stranded DNA, SYBR Green I fluorescence increases by up to 100-fold.
# The assay was performed in the 384-well plate format. Upon addition of compounds, changes in double-stranded DNA synthesis activity can be monitored by following effects on fluorescent intensity.
# The reactions also contained the accessory POLγB subunit, and the human mitochondrial single-stranded DNA binding protein (mtSSB).
# The DNA template mixture used in the assay contained 0.5 nM primed M13 mp18 ssDNA, 400 nM mtSSB, 0.1 mM Tris-HCl (pH 8.0), 0.1 mM dNTP, 10 mM MgCl2, 0.1 mg/mL BSA, 1 mM TCEP solution, and 0.02% Triton X-100. The DNA template mixture for the wild type protein contained either 100 μM dNTP, 1 μM dNTP, or 0.1 μM dNTP, designated in Table 2 as 100 μM, 1 μM, and 0.1 μM, respectfully.
# Microplates with compounds (0.1 μL in each well) to be tested in the assay were prepared from 10 mM compound stocks in 100% DMSO, and equal amounts of DMSO without any compound were added to positive and negative control wells.
# The protein mixture was dispensed (5 μL into each well) into compound plates and incubated at 37° C. for 15 minutes. After incubation, 5 μL of the DNA template mixture was dispensed into each well. The plates were then incubated at 37° C. for 2 hours.
# During incubation, a combined stop buffer and detection reagent solution was prepared. The buffer contained 25 mM EDTA (pH 8.0), 0.02% Triton X-100, and SYBR Green I [Invitrogen] diluted 10,000× (for fluorescent readout). EDTA will stop the enzymatic reaction by chelating magnesium ions.
row,SMILES,AC50
1,Cc1ccc(C)c(S(=O)(=O)Nc2cccc(-c3nccs3)c2)c1 [Example 60],900 nM
2,"Cc1cc(S(=O)(=O)Nc2cccc(-c3cc(C4CC4)[nH]n3)c2)c(C)cc1Cl [Example 64, 4-chloro-N-(3-(5-cyclopropyl-1H-pyrazol-3-yl)phenyl)-2,5-dimethylbenzenesulfonamide]",1000 nM
3,"Cc1csc(-c2cccc(NS(=O)(=O)c3cc(C)c(Cl)cc3C)c2)n1 [Example 20, 4-chloro-2,5-dimethyl-N-(3-(4-methylthiazol-2-yl)phenyl)benzenesulfonamide]",1000 nM
4,"CC[C@@H]1CCCN1C(=O)c1cccc(NS(=O)(=O)c2cc(C)c(Cl)cc2C)c1 [Example 65, (R)-4-chloro-N-(3-(2-ethylpyrrolidine-1-carbonyl)phenyl)-2,5-dimethylbenzenesulfonamide]",5000 nM
5,"Cc1cnc(-c2cccc(NS(=O)(=O)c3cc(C)c(Cl)cc3C)c2)s1 [Example 21, 4-chloro-2,5-dimethyl-N-(3-(5-methylthiazol-2-yl)phenyl)benzenesulfonamide]",1000 nM

# Now from value to compound:
row,AC50,SMILES
1,7000 nM,"Cc1cc(S(=O)(=O)Nc2cccc(-c3cc[nH]n3)c2)c(C)cc1Cl [Example 68, N-(3-(1H-pyrazol-3-yl)phenyl)-4-chloro-2,5-dimethylbenzenesulfonamide]"
2,8000 nM,"Cc1cc2cc(NS(=O)(=O)c3cc(C)c(Cl)cc3C)ccc2[nH]1 [Example 184, 4-chloro-2,5-dimethyl-N-(2-methyl-1H-indol-5-yl)benzenesulfonamide]"
3,51000 nM,"Cc1nc2ccc(NS(=O)(=O)c3cc(C)c(Cl)cc3C)cc2o1 [Example 70, 4-chloro-2,5-dimethyl-N-(2-methylbenzo[d]oxazol-6-yl)benzenesulfonamide]"
4,12000 nM,"Cc1cc(-c2cccc(NS(=O)(=O)c3cc(C)c(Cl)cc3C)c2)n[nH]1 [Example 66, 4-chloro-2,5-dimethyl-N-(3-(5-methyl-1H-pyrazol-3-yl)phenyl)benzenesulfonamide]"
5,1000 nM,"Cc1cc(S(=O)(=O)Nc2ccc3ccn(C(C)C)c3c2)c(C)cc1Cl [Example 69, 4-chloro-N-(1-isopropyl-1H-indol-6-yl)-2,5-dimethylbenzenesulfonamide]"

# — patent US20260138961A1, “MODULATORS OF MITOCHONDRIAL DNA REPLICATION” (Pretzel Therapeutics, Inc., priority 2022, published 2026)
